Consider five compounds from DBAASP.

Test systems include Aeromonas hydrophila; Aeromonas salmonicida; Syspastospora parasitica; Bacillus cereus DSM 4222; Listeria monocytogenes; Bacillus cereus DSM 4312; Staphylococcus aureus 75; Escherichia coli 804; Escherichia coli 780.
What all share (experiment): ≥ marks a high value that may be exact or a test limit, other limits are often not marked, values filed in µg/mL are converted to µM
For test [1], the system named is Staphylococcus epidermidis ATCC 35984.
For test [2], the system named is Pseudomonas aeruginosa ATCC 9027.
Test [3] relates to Escherichia coli ATCC 8739.
Test [4] deals with Staphylococcus aureus ATCC 33592.
For test [5], the system named is Edwardsiella tarda ATCC 15947.
Test [6] concerns Vibrio parahaemolyticus ATCC 17802.
Test [7] concerns Staphylococcus aureus FDA 209P.
Test [8] deals with Escherichia coli ATCC 25922.
Test [9] relates to Pseudomonas aeruginosa PA14.
Test [10] deals with Acinetobacter baumannii ATCC 7978.
In test [11] the test system is Staphylococcus aureus ATCC 29231.
For test [12], the system named is Enterococcus faecium E007.
For test [13], the system named is Escherichia coli ATCC 35150.
Test [14] deals with Salmonella typhimurium DSM 19587.
The subject of test [15] is Pseudomonas putida DSM 291.
Test [16] relates to Listeria monocytogenes SLCC 5581.
The subject of test [17] is Escherichia coli NEB5alpha.
The subject of test [18] is Clostridium perfringens DSM 11784.
Test [19] deals with Staphylococcus aureus ATCC 3300.
The test system of test [20] is Clostridium perfringens ATCC 13124.
In test [21] the test system is Pseudomonas fluorescens DSM 50124.
For test [22], the system named is Salmonella enterica subsp. enterica serovar Typhimurium DSM 554.
The test system of test [23] is Staphylococcus aureus DSM 2569.
Test [24] relates to Bacillus subtilis ATCC 6051.
The test system of test [25] is Escherichia coli NCTC 13452.
The test system of test [26] is Acinetobacter baumannii 9931.
Test [27] relates to Bacillus subtilis ATCC 23857.
Test [28] deals with Pseudomonas aeruginosa 73.
Test [29] relates to Staphylococcus aureus ATCC 29213.
Test [30] relates to Staphylococcus aureus 113.
The subject of test [31] is Klebsiella pneumoniae ATCC 700603.
The subject of test [32] is Staphylococcus epidermidis ATCC 12228.
The subject of test [33] is Pseudomonas aeruginosa 50.
The test system of test [34] is Acinetobacter baumannii ATCC 19606.
The subject of test [35] is Pseudomonas aeruginosa ATCC 27853.
The test system of test [36] is Acinetobacter baumannii 97830.

Values after ≈ are worked out from the molar mass of the structure shown.

As for `NC(=O)[C@H](Cc1ccc(O)cc1)NC(=O)[C@H](Cc1c[nH]c2ccccc12)NC(=O)[C@H](CCCN=C(N)N)NC(=O)[C@H](CCCN=C(N)N)NC(=O)[C@H](Cc1ccc(O)cc1)NC(=O)[C@H](Cc1c[nH]c2ccccc12)NC(=O)[C@H](CCCN=C(N)N)NC(=O)[C@H](CCCN=C(N)N)NC(=O)[C@H](Cc1ccc(O)cc1)NC(=O)[C@H](Cc1c[nH]c2ccccc12)NC(=O)[C@H](CCCN=C(N)N)NC(=O)[C@@H](N)CCCN=C(N)N` [RRWYRRWYRRWY], the MIC was no less than 125 µM against Aeromonas hydrophila; no less than 500 µM in the test with Aeromonas salmonicida; 15.6 µM (≈ 31.3 µg/mL) in test [1]; 7.81 µM (≈ 15.6 µg/mL) with Syspastospora parasitica; 0.49 µM (≈ 0.981 µg/mL) in [2]; 7.81 µM (≈ 15.6 µg/mL) in test [3]. In addition, the figures for the MIC in test [4], in test [5] and in [6] were 31.2 µM (≈ 62.6 µg/mL), no less than 62.5 µM and no less than 125 µM, respectively.

Turning to `CC[C@H](C)[C@H](NC(=O)[C@H](CCSC)NC(=O)[C@H](CCCCN)NC(=O)[C@@H](NC(=O)[C@H](C)NC(=O)CNC(=O)[C@H](CCCCN)NC(=O)[C@@H](NC(=O)[C@H](CC(C)C)NC(=O)[C@@H](NC(=O)[C@H](Cc1ccccc1)NC(=O)[C@H](CC(C)C)NC(=O)CN)[C@@H](C)O)[C@@H](C)CC)C(C)C)C(=O)NCC(=O)N[C@@H](CCCCN)C(=O)N[C@H](C(=O)N[C@H](C(=O)N[C@@H](C)C(=O)N[C@@H](CCCCN)C(=O)N[C@@H](CCC(=O)O)C(=O)N[C@@H](C)C(=O)NCC(=O)N[C@@H](CCCCN)C(=O)N[C@H](C(=O)NCC(=O)N[C@@H](CC(C)C)C(=O)N[C@@H](CCC(=O)O)C(=O)N[C@@H](CC(C)C)C(=O)N[C@@H](CCSC)C(=O)N[C@@H](C)C(=O)N[C@H]1CSSC[C@@H](C(=O)O)NC(=O)[C@H](CCC(N)=O)NC(=O)[C@H](CC(N)=O)NC(=O)[C@H]([C@@H](C)O)NC(=O)[C@H](C(C)C)NC(=O)[C@H](CCCCN)NC1=O)[C@@H](C)O)C(C)C)[C@@H](C)O` [GLFTLIKGAVKMIGKTVAKEAGKTGLELMACKVTNQC], the MIC in test [7] worked out at 2.6 µM (≈ 10 µg/mL); in test [8], 1.1 µM (≈ 4.24 µg/mL).

Consider `CC[C@H](C)[C@H](NC(=O)[C@H](CCCCN)NC(=O)[C@H](Cc1c[nH]c2ccccc12)NC(=O)[C@@H](N)CC(C)C)C(=O)NCC(=O)N[C@@H](CCCCN)C(=O)N[C@@H](CCCCN)C(=O)N[C@H](C(=O)N[C@@H](Cc1c[nH]c2ccccc12)C(=O)N[C@@H](CCCN=C(N)N)C(=O)N[C@H](C(=O)N[C@@H](CC(C)C)C(=O)N[C@@H](Cc1c[nH]c2ccccc12)C(=O)N[C@@H](CC(N)=O)C(=O)N[C@@H](Cc1c[nH]c2ccccc12)C(=O)N[C@@H](CCCN=C(N)N)C(=O)O)C(C)C)[C@@H](C)CC` [LWKIGKKIWRVLWNWR], for which the MIC in test [9] was 14.7 µM (≈ 32 µg/mL); in test [10], 7.33 µM (≈ 16 µg/mL); in test [11], 1.83 µM (≈ 3.99 µg/mL); in [12] it was no less than 58.6 µM.

As to `CC[C@H](C)[C@H](NC(=O)[C@@H](N)CCCN=C(N)N)C(=O)N[C@@H](CCCCN)C(=O)N[C@H](C(=O)N[C@H](C(=O)N[C@H](C(=O)N[C@@H](CO)C(=O)N[C@@H](Cc1ccccc1)C(=O)N[C@@H](CC(=O)O)C(=O)N[C@@H](CC(C)C)C(=O)N1CCC[C@H]1C(=O)N[C@@H](C)C(=O)N[C@@H](CC(C)C)C(=O)N[C@@H](CCCN=C(N)N)C(=O)N[C@@H](Cc1ccccc1)C(=O)N[C@@H](CC(C)C)C(=O)N[C@@H](CCCCN)C(=O)N[C@@H](CC(C)C)C(=O)O)[C@@H](C)O)C(C)C)[C@@H](C)O` [RIKTVTSFDLPALRFLKL], the MIC is no less than 1000 µM in the test on Bacillus cereus DSM 4222; no less than 500 µM in [13]; no less than 1000 µM in test [14]; no less than 125 µM in test [15]; no less than 500 µM in test [16]; no less than 250 µM in the test with Listeria monocytogenes. For the same compound, the MIC in test [17] is no less than 62.5 µM; in [18], no less than 1000 µM; in [19] it was no less than 500 µM; in the test on Bacillus cereus DSM 4312 it was no less than 1000 µM; in test [20], no less than 125 µM; in [21] it was no less than 500 µM. The MIC in test [22] is no less than 1000 µM; in test [23], no less than 500 µM; in [24], 15.6 µM (≈ 33.1 µg/mL); in [25], no less than 125 µM.

As to `NCC(=O)N[C@@H](CCCN=C(N)N)C(=O)N[C@@H](CCCN=C(N)N)C(=O)N[C@@H](Cc1c[nH]c2ccccc12)C(=O)N[C@@H](Cc1c[nH]c2ccccc12)C(=O)N[C@@H](Cc1c[nH]c2ccccc12)C(=O)N[C@@H](CCCN=C(N)N)C(=O)N[C@@H](CCCN=C(N)N)C(=O)NCC(N)=O` [GRRWWWRRG], the minimal inhibitory concentration (MIC) is no less than 64 µM in test [26]; 4 µM (≈ 5.26 µg/mL) in test [27]; 8 µM (≈ 10.5 µg/mL) against Staphylococcus aureus 75; no less than 128 µM in test [28]; 2 µM (≈ 2.63 µg/mL) in [29]; 8 µM (≈ 10.5 µg/mL) in test [30]. Besides, the minimum inhibitory concentration (MIC) in test [31] is 128 µM (≈ 168 µg/mL); in [32], 4 µM (≈ 5.26 µg/mL); in test [33], no less than 128 µM; in test [2], 128 µM (≈ 168 µg/mL); in the test on Escherichia coli 804, no less than 32 µM; in test [34] it was 128 µM (≈ 168 µg/mL). For the same compound, the MIC was no less than 32 µM in the test on Escherichia coli 780, greater than 128 µM in [35] and no less than 128 µM in test [36].

In general, MIC refers to the smallest concentration in the dilution series that meets the test's criterion for growth inhibition. The low end stands for inhibition by little substance, the high end for a need for much substance.
